Measured values as given in patent US20240270741A1 (Cogent Biosciences, Inc., priority 2023, published 2024).
pIC50: −log10 of the molar value.

The compounds below were run against FGFR2 (Homo sapiens, UniProt P21802) (assay: FGFR wild type enzyme assay (HTRF KinEASE-TK), FGFR2). Details: Enz FGFR2 (nM), FGFR2 wild type enzyme assay.
Sequence of FGFR2 (P21802 399-821 limits assumed): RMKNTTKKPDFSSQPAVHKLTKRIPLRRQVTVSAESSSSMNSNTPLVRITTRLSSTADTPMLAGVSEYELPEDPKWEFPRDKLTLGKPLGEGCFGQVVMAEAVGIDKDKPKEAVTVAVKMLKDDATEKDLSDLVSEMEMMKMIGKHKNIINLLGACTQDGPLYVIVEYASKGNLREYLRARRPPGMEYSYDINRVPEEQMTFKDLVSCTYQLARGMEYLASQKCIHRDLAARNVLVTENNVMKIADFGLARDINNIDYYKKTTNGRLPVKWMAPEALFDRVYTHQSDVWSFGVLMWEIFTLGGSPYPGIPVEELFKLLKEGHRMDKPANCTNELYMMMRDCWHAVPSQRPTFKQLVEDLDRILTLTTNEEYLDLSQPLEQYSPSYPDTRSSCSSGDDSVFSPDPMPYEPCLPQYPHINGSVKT

| SMILES | IC50 [nM] |
| --- | --- |
| N#Cc1ccccc1Sc1cc(-c2cnn(C(F)F)c2)cn2ncc(C#N)c12 [Example 584, 4-((2-cyanophenyl)thio)-6-(1-(difluoromethyl)-1H-pyrazol-4-yl)pyrazolo[1,5-a]pyridine-3-carbonitrile] | 6 |
| N#Cc1ccccc1Sc1cc(-c2cnn(C3CCOC3)c2)cn2ncc(C#N)c12 (stereo not drawn) [Example 585, 4-((2-cyanophenyl)thio)-6-(1-(tetrahydrofuran-3-yl)-1H-pyrazol-4-yl)pyrazolo[1,5-a]pryidine-3-carbonitrile] | 1 |
| N#Cc1cc(F)ccc1Sc1cc(-c2ccc(N3CCC(O)CC3)nc2)cn2ncc(C#N)c12 [Example 586, 4-((2-cyano-4-fluorophenyl)thio)-6-(6-(4-hydroxypiperidin-1-yl)pyridin-3-yl)pyrazolo[1,5-a]pyridine-3-carbonitrile] | 1 |
| Cn1ccc(-c2cc(Sc3ccc(F)cc3C#N)c3c(C#N)cnn3c2)cc1=O [Example 587, 4-((2-cyano-4-fluorophenyl)thio)-6-(1-methyl-2-oxo-1,2-dihydropyridin-4-yl)pyrazolo[1,5-a]pyridine-3-carbonitrile] | 43 |
| N#Cc1ccccc1Sc1cc(-c2cnn(CC(F)(F)F)c2)cn2ncc(C#N)c12 [Example 588] | 2 |
| Cc1c(-c2cc(Sc3ccccc3C#N)c3c(C#N)cnn3c2)cnn1C1CCN(C(=O)C(C)(C)O)CC1 [Example 589, 4-((2-cyanophenyl)thio)-6-(1-(1-(2-hydroxy-2-methylpropanoyl)piperidin-4-yl)-5-methyl-1H-pyrazol-4-yl)pyrazolo[1,5-a]pyridine-3-carbonitrile] | 1 |
| C[C@@H](O)C(=O)N1CCC[C@H](n2cc(-c3cc(Sc4ccccc4C#N)c4c(C#N)cnn4c3)cn2)C1 [Example 590, 4-((2-cyanophenyl)thio)-6-(1-((S)-1-((R)-2-hydroxypropanoyl)piperidin-3-yl)-1H-pyrazol-4-yl)pyrazolo[1,5-a]pyridine-3-carbonitrile] | 0.5 |
| N#Cc1ccccc1Sc1cc(-c2cnn([C@@H]3CCNC(=O)C3)c2)cn2ncc(C#N)c12 [Example 591, (R)-4-((2-cyanophenyl)thio)-6-(1-(2-oxopiperidin-4-yl)-1H-pyrazol-4-yl)pyrazolo[1,5-a]pyridine-3-carbonitrile] | 0.4 |
| N#Cc1ccccc1Sc1cc(-c2cnn([C@H]3CCNC(=O)C3)c2)cn2ncc(C#N)c12 [Example 592, (S)-4-((2-cyanophenyl)thio)-6-(1-(2-oxopiperidin-4-yl)-1H-pyrazol-4-yl)pyrazolo[1,5-a]pyridine-3-carbonitrile] | 1 |
| CC1(C)CC[C@H](n2cc(-c3cc(Sc4ccccc4C#N)c4c(C#N)cnn4c3)cn2)CN1 [Example 593, (S)-4-((2-cyanophenyl)thio)-6-(1-(6,6-dimethylpiperidin-3-yl)-1H-pyrazol-4-yl)pyrazolo[1,5-a]pyridine-3-carbonitrile] | 1 |
| CC1(C)CC[C@@H](n2cc(-c3cc(Sc4ccccc4C#N)c4c(C#N)cnn4c3)cn2)CN1 [Example 594, (R)-4-((2-cyanophenyl)thio)-6-(1-(6,6-dimethylpiperidin-3-yl)-1H-pyrazol-4-yl)pyrazolo[1,5-a]pyridine-3-carbonitrile] | 1 |
| N#Cc1cc(F)ccc1Sc1cc(-c2ccc(N3CCNCC3)nc2)cn2ncc(C#N)c12 [Example 595, 4-((2-cyano-4-fluorophenyl)thio)-6-(6-(piperazin-1-yl)pyridin-3-yl)pyrazolo[1,5-a]pyridine-3-carbonitrile] | 15 |
| CN(CC(O)CO)c1ccc(-c2cc(Sc3ccc(F)cc3C#N)c3c(C#N)cnn3c2)cn1 (stereo not drawn) [Example 596, 4-((2-cyano-4-fluorophenyl)thio)-6-(6-((2,3-dihydroxypropyl)(methyl)amino)pyridin-3-yl)pyrazolo[1,5-a]pyridine-3-carbonitrile] | 1 |
| Cc1cccc(C#N)c1Sc1cc(-c2cnn(C)c2)cn2ncc(C#N)c12 [Example 597, 4-((2-cyano-6-methylphenyl)thio)-6-(1-methyl-1H-pyrazol-4-yl)pyrazolo[1,5-a]pryidine-3-carbonitrile] | 30 |
| CN(C)CCn1cc(-c2cc(Sc3ccccc3C#N)c3c(C#N)cnn3c2)cn1 [Example 598, 4-((2-cyanophenyl)thio)-6-(1-(2-(dimethylamino)ethyl)-1H-pyrazol-4-yl)pyrazolo[1,5-a]pryidine-3-carbontrile] | 1 |
| N#Cc1ccccc1Sc1cc(-c2cnn([C@H]3CCCC[C@H]3O)c2)cn2ncc(C#N)c12 [Example 599, 4-((2-cyanophenyl)thio)-6-(1-((1S,2R)-2-hydroxycyclohexyl)-1H-pyrazol-4-yl)pyrazolo[1,5-a]pyridine-3-carbonitrile] | 2 |
| CC(=O)N1CCN(c2nnc(-c3cc(Sc4ccccc4C#N)c4c(C#N)cnn4c3)s2)CC1 [Example 600, 6-(5-(4-acetylpiperazin-1-y)-1,3,4-thiadiazol-2-yl)-4-((2-cyanophenyl)thio)pyrazolo [1,5-a]pyridine-3-carbonitrile] | 6 |
| CC(=O)N1CCN(c2ncc(-c3cc(Sc4ccccc4C#N)c4c(C#N)cnn4c3)o2)CC1 [Example 601, 6-(2-(4-acetylpiperazin-1-yl)oxazol-5-yl)-4-((2-cyanophenyl)thio)pyrazolo [1,5-a]pyridine-3-carbonitrile] | 53 |
| N#Cc1ccccc1Sc1cc(-c2cnn([C@@H]3CCN(CCO)C3)c2)cn2ncc(C#N)c12 [Example 603, (R)-4-((2-cyanophenyl)thio)-6-(1-(1-(2-hydroxyethyl)pyrrolidin-3-yl)-1H-pyrazol-4-yl)pyrazolo[1,5-a]pyridine-3-carbonitrile] | 0.6 |
| CN1CC[C@@H](n2cc(-c3cc(Sc4ccccc4C#N)c4c(C#N)cnn4c3)cn2)C1 [Example 604, (R)-4-((2-cyanophenyl)thio)-6-(1-(1-methylpyrrolidin-3-yl)-1H-pyrazol-4-yl)pyrazolo[1,5-a]pyridine-3-carbonitrile] | 0.5 |
| C[C@@H](O)C(=O)N1CC[C@@H](n2cc(-c3cc(Sc4ccccc4C#N)c4c(C#N)cnn4c3)cn2)C1 [Example 605, 4-((2-cyanophenyl)thio)-6-(1-((R)-1-((R)-2-hydroxypropanoyl)pyrroli-din-3-yl)-1H-pyrazol-4-yl)pyrazolo[1,5-a]pyridine-3-carbonitrile] | 0.6 |
| C[C@H](O)C(=O)N1CC[C@@H](n2cc(-c3cc(Sc4ccccc4C#N)c4c(C#N)cnn4c3)cn2)C1 [Example 606, 4-((2-cyanophenyl)thio)-6-(1-((R)-1-((S)-2-hydroxypropanoyl)pyrrolidin-3-yl)-1H-pyrazol-4-y)pyrazolo[1,5-a]pyridine-3-carbonitrile] | 0.5 |
| N#Cc1ccccc1Sc1cc(-c2cnn(C(F)(F)F)c2)cn2ncc(C#N)c12 [Example 607, 4-((2-cyanophenyl)thio)-6-(1-(trifluoromethyl)-1H-pyrazol-4-yl)pyrazolo[1,5-a]pyridine-3-carbonitrile] | 10 |

Same assay, conditions: read-out: Enz FGFR2; FGFR2 wild type enzyme assay

| SMILES | pIC50 |
| --- | --- |
| CC(=O)O[C@H]1CC[C@H](n2ncc(-c3cc(Sc4ccc(F)cc4C#N)c4c(C#N)cnn4c3)c2C)CC1 [Example 602, (1r,4r)-4-(4-(3-cyano-4-((2-cyano-4-fluorophenyl)thhio)pyrazolo [1,5-a]pyridin-6-yl)-5-methyl-1H-pyrazol-1-yl)cyclohexyl acetate] | 8.70 |
